Experimental data as given in ChEMBL document CHEMBL1201862, “PubChem BioAssay data set” (2004).
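How tested: cells in 96-well plates exposed to compound for 48 hours at five concentrations. At the GI50, growth is halved.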 Calls of active or inactive are those of the source. Cut-off read from the data, not from the text of the source: active = GI50 up to about 1.1 µM and inactive = higher.

Legend:
Test in all cases: growth of human tumour cells (NCI), 48 h
CCRF-CEM = test system: CCRF-CEM
HCC 2998 = test system: HCC 2998
HL-60 = test system: HL-60
HT-29 = test system: HT-29
K562 = test system: K562
M14 = test system: M14
MCF7 = test system: MCF7
MDA-MB-435 = test system: MDA-MB-435
Malme-3M = test system: Malme-3M
NCI-H23 = test system: NCI-H23
NCI-H460 = test system: NCI-H460
OVCAR-8 = test system: OVCAR-8
PC-3 = test system: PC-3
RXF 393 = test system: RXF 393
SF-295 = test system: SF-295
SK-OV-3 = test system: SK-OV-3
SN12C = test system: SN12C
SR = test system: SR
TK-10 = test system: TK-10
UACC-257 = test system: UACC-257

Structure (SMILES)	GI50 (CCRF-CEM)	GI50 (HCC 2998)	GI50 (HL-60)	GI50 (HT-29)	GI50 (K562)	GI50 (M14)	GI50 (MCF7)	GI50 (MDA-MB-435)	GI50 (Malme-3M)	GI50 (NCI-H23)	GI50 (NCI-H460)	GI50 (OVCAR-8)	GI50 (PC-3)	GI50 (RXF 393)	GI50 (SF-295)	GI50 (SK-OV-3)	GI50 (SN12C)	GI50 (SR)	GI50 (TK-10)	GI50 (UACC-257)
CCCC(=O)Nc1cn(COC)c(C(=O)N2C[C@@H]3C[C@]34C2=CC(=O)c2[nH]cc(C)c24)n1	1.27 µM (inactive)	5.31 µM (inactive)	1.07 µM (active)	7.76 µM (inactive)	4.35 µM (inactive)	13.4 µM (inactive)	2.45 µM (inactive)	9.23 µM (inactive)	1.72 µM (inactive)	2.9 µM (inactive)	4.79 µM (inactive)	4.23 µM (inactive)	6.81 µM (inactive)	2.57 µM (inactive)	15.6 µM (inactive)	11.2 µM (inactive)	11.2 µM (inactive)	0.24 µM (active)	7.96 µM (inactive)	8.13 µM (inactive)
c1csc(-c2csc(-c3cccs3)c2)c1	49.2 µM (inactive)	48.5 µM (inactive)	37.5 µM (inactive)	> 100 µM (inactive)	–	58.1 µM (inactive)	8.85 µM (inactive)	25.8 µM (inactive)	51.8 µM (inactive)	24.3 µM (inactive)	88.3 µM (inactive)	> 100 µM (inactive)	29.7 µM (inactive)	6.1 µM (inactive)	35.9 µM (inactive)	95.9 µM (inactive)	34.2 µM (inactive)	23.5 µM (inactive)	67.1 µM (inactive)	40 µM (inactive)
CCOC(=O)C#Cc1cccc(C#CC(=O)OCC)c1	1.22 µM (inactive)	0.624 µM (active)	1.8 µM (inactive)	4.81 µM (inactive)	1.91 µM (inactive)	2.13 µM (inactive)	5.62 µM (inactive)	4.59 µM (inactive)	5.14 µM (inactive)	3.66 µM (inactive)	11.1 µM (inactive)	6.98 µM (inactive)	6.21 µM (inactive)	5.31 µM (inactive)	1.65 µM (inactive)	7.55 µM (inactive)	3.03 µM (inactive)	0.506 µM (active)	5.47 µM (inactive)	10.2 µM (inactive)
O=C(O)c1c(-c2ccccc2)c(=O)[nH]c2ccccc12	> 100 µM (inactive)	> 100 µM (inactive)	> 100 µM (inactive)	> 100 µM (inactive)	> 100 µM (inactive)	> 100 µM (inactive)	> 100 µM (inactive)	> 100 µM (inactive)	> 100 µM (inactive)	> 100 µM (inactive)	> 100 µM (inactive)	> 100 µM (inactive)	> 100 µM (inactive)	> 100 µM (inactive)	> 100 µM (inactive)	> 100 µM (inactive)	> 100 µM (inactive)	> 100 µM (inactive)	> 100 µM (inactive)	> 100 µM (inactive)
C=C1C(=O)O[C@@H]2C[C@@H](C)[C@@H]3C=CC(=O)[C@@]3(C)[C@@H](OC(=O)CCCC(=O)O[C@H]3[C@@H]4C(=C)C(=O)O[C@@H]4C[C@@H](C)[C@@H]4C=CC(=O)[C@]43C)[C@H]12	< 0.01 µM (active)	0.624 µM (active)	< 0.01 µM (active)	0.0352 µM (active)	< 0.01 µM (active)	0.0217 µM (active)	0.0348 µM (active)	0.0167 µM (active)	0.0176 µM (active)	0.0853 µM (active)	0.27 µM (active)	0.0131 µM (active)	0.0931 µM (active)	0.0187 µM (active)	0.989 µM (active)	1.35 µM (inactive)	0.0402 µM (active)	< 0.01 µM (active)	0.0682 µM (active)	0.114 µM (active)
